Reference: PubChem BioAssay AID330 (DTP/NCI, 2004)
Several values for one entry are separate records, joined by “and”; a condition that tells them apart may be missing. Equal entries are not always repeated. Toxic doses and inconclusive results are not listed.

Tested on: P388 leukemia ip, CD2F1 mice, survival T/C
Test: NCI In Vivo Anticancer Drug Screen. Data for tumor model P388 Leukemia (intraperitoneal) in CD2F1 (CDF1) mice
Settings: endpoint: median survival time, higher = longer survival
In short: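 Mice carrying the transplanted tumor received test compound or vehicle. Survival was recorded in each group, and the value is the treated-group measurement divided by that of the vehicle-treated control group.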

[1] = dose: 25.0 mg/kg/injection, schedule: Q04DX003 (ip), vehicle: saline with Tween-80
[2] = dose: 50.0 mg/kg/injection, schedule: Q01DX009 (ip), vehicle: saline with Tween-80
[3] = dose: 50.0 mg/kg/injection, schedule: Q04DX003 (ip), vehicle: saline with Tween-80
[4] = dose: 100.0 mg/kg/injection, schedule: Q01DX009 (ip), vehicle: saline with Tween-80
[5] = dose: 100.0 mg/kg/injection, schedule: Q04DX003 (ip), vehicle: saline with Tween-80
[6] = dose: 100.0 mg/kg/injection, schedule: Q04DX002 (ip), vehicle: saline with Tween-80
[7] = dose: 50.0 mg/kg/injection, schedule: Q01DX005 (ip), vehicle: Klucel (hydroxypropylcellulose) (HPC)
[8] = dose: 100.0 mg/kg/injection, schedule: Q01DX005 (ip), vehicle: Klucel (hydroxypropylcellulose) (HPC)
[9] = dose: 50.0 mg/kg/injection, schedule: Q01DX005 (ip), vehicle: saline with Tween-80
[10] = dose: 100.0 mg/kg/injection, schedule: Q01DX005 (ip), vehicle: saline with Tween-80
[11] = dose: 200.0 mg/kg/injection, schedule: Q01DX005 (ip), vehicle: saline with Tween-80
[12] = dose: 25.0 mg/kg/injection, schedule: Q01DX009 (ip), vehicle: saline with Tween-80
[13] = dose: 100.0 mg/kg/injection, schedule: Q01DX009 (ip), vehicle: Klucel (hydroxypropylcellulose) (HPC)
[14] = dose: 200.0 mg/kg/injection, schedule: Q01DX009 (ip), vehicle: Klucel (hydroxypropylcellulose) (HPC)
[15] = dose: 25.0 mg/kg/injection, schedule: Q01DX005 (ip), vehicle: Klucel (hydroxypropylcellulose) (HPC)
[16] = dose: 50.0 mg/kg/injection, schedule: Q01DX009 (ip), vehicle: Klucel (hydroxypropylcellulose) (HPC)

CS(=O)(=O)OCCN(CCOS(C)(=O)=O)c1cccc(C(F)(F)F)c1
T/C (dose: 0.75 mg/kg/injection, schedule: Q04DX003 (ip), vehicle: saline): 100 % of control
T/C (dose: 1.5 mg/kg/injection, schedule: Q04DX003 (ip), vehicle: saline): 100 % of control
T/C (dose: 3.0 mg/kg/injection, schedule: Q04DX003 (ip), vehicle: saline): 100 % of control
T/C [1]: 170 % of control and 212 % of control
T/C [2]: 159 % of control
T/C [3]: 216 % of control
T/C [4]: 213 % of control
T/C [5]: 87 % of control

O=C(CC(=O)C(F)(F)F)c1cccs1.O=C(CC(=O)C(F)(F)F)c1cccs1.O=C(CC(=O)C(F)(F)F)c1cccs1.[Eu]
T/C (dose: 50.0 mg/kg/injection, schedule: Q01DX009 (ip), vehicle: saline): 113 % of control
T/C (dose: 100.0 mg/kg/injection, schedule: Q01DX009 (ip), vehicle: saline): 106 % of control
T/C (dose: 200.0 mg/kg/injection, schedule: Q01DX009 (ip), vehicle: saline): 102 % of control

CCOC(=O)C12C3CC4C1C1(Cl)C(Cl)(Cl)C2(Cl)C2(Cl)C3C4C12Cl (stereo not drawn)
T/C [6]: 94 % of control
T/C (dose: 200.0 mg/kg/injection, schedule: Q04DX002 (ip), vehicle: saline with Tween-80): 93 % of control
T/C (dose: 400.0 mg/kg/injection, schedule: Q04DX002 (ip), vehicle: saline with Tween-80): 109 % of control

C/C=C/c1cc(OC)c2c(c1)[C@H](C)C(c1ccc(O)c(OC)c1)O2 (stereo partly drawn)
T/C (dose: 37.5 mg/kg/injection, schedule: Q01DX005 (ip), vehicle: Klucel (hydroxypropylcellulose) (HPC)): 106 % of control
T/C (dose: 75.0 mg/kg/injection, schedule: Q01DX005 (ip), vehicle: Klucel (hydroxypropylcellulose) (HPC)): 97 % of control
T/C (dose: 150.0 mg/kg/injection, schedule: Q01DX005 (ip), vehicle: Klucel (hydroxypropylcellulose) (HPC)): 95 % of control

BrCC1(CBr)COC1
T/C (dose: 50.0 mg/kg/injection, schedule: Q01DX001 (ip), vehicle: Klucel (hydroxypropylcellulose) (HPC)): 95 % of control
T/C (dose: 100.0 mg/kg/injection, schedule: Q01DX001 (ip), vehicle: Klucel (hydroxypropylcellulose) (HPC)): 107 % of control
T/C (dose: 200.0 mg/kg/injection, schedule: Q01DX001 (ip), vehicle: Klucel (hydroxypropylcellulose) (HPC)): 100 % of control

Cc1ccc(C=C2c3ccccc3C(=O)c3ccccc32)cc1
T/C [7]: 108 % of control
T/C [8]: 107 % of control
T/C (dose: 200.0 mg/kg/injection, schedule: Q01DX005 (ip), vehicle: Klucel (hydroxypropylcellulose) (HPC)): 105 % of control

COc1cc(CC2C(CO)OC(=O)C2Cc2ccc3c(c2)OCO3)cc(OC)c1OC (stereo not drawn)
T/C (dose: 50.0 mg/kg/injection, schedule: Q04DX002 (ip), vehicle: acetone): 98 % of control
T/C (dose: 100.0 mg/kg/injection, schedule: Q04DX002 (ip), vehicle: acetone): 98 % of control
T/C (dose: 200.0 mg/kg/injection, schedule: Q04DX002 (ip), vehicle: acetone): 98 % of control

CCOC(=O)CCC(=O)Oc1ccc2c(c1)C(=O)c1ccc(OC(=O)CCC(=O)OCC)cc1C2=O
T/C (dose: 1.87 mg/kg/injection, schedule: Q01DX005 (ip), vehicle: Klucel (hydroxypropylcellulose) (HPC)): 99 % of control
T/C (dose: 3.75 mg/kg/injection, schedule: Q01DX005 (ip), vehicle: Klucel (hydroxypropylcellulose) (HPC)): 99 % of control
T/C (dose: 7.5 mg/kg/injection, schedule: Q01DX005 (ip), vehicle: Klucel (hydroxypropylcellulose) (HPC)): 99 % of control and 91 % of control

Nc1nnc(-c2cc(=O)c3cc(Cl)ccc3o2)s1
T/C [9]: 97 % of control
T/C [10]: 100 % of control
T/C [11]: 93 % of control

N#CC1CCCCCc2c1[nH]c1ccccc21 (stereo not drawn)
T/C [12]: 97 % of control
T/C [2]: 103 % of control
T/C [4]: 103 % of control

CC1CC(C)/C(=N/NC(N)=S)C(C(O)CC2CC(=O)NC(=O)C2)C1 (stereo not drawn)
T/C [9]: 109 % of control
T/C [10]: 105 % of control
T/C [11]: 104 % of control

COc1ccc(-c2c(N)cnc(C)c2C)c(OC)c1OC
T/C (dose: 12.5 mg/kg/injection, schedule: Q01DX009 (ip), vehicle: other): 107 % of control
T/C (dose: 25.0 mg/kg/injection, schedule: Q01DX009 (ip), vehicle: other): 107 % of control
T/C (dose: 50.0 mg/kg/injection, schedule: Q01DX009 (ip), vehicle: other): 99 % of control
T/C (dose: 100.0 mg/kg/injection, schedule: Q01DX009 (ip), vehicle: other): 87 % of control

CCCCCNCC(=O)N1CCCC1C(=O)OC(C)(C)C (stereo not drawn)
T/C [9]: 97 % of control
T/C [10]: 105 % of control
T/C [11]: 103 % of control

Cc1ccc(C)c(NC(=O)CCC(=O)CC(=O)c2ccncc2)c1
T/C (dose: 60.0 mg/kg/injection, schedule: Q01DX005 (ip), vehicle: saline with Tween-80): 107 % of control
T/C (dose: 120.0 mg/kg/injection, schedule: Q01DX005 (ip), vehicle: saline with Tween-80): 107 % of control
T/C (dose: 240.0 mg/kg/injection, schedule: Q01DX005 (ip), vehicle: saline with Tween-80): 105 % of control

O=c1c(CO)c(-c2ccccc2)sc2ccccc12
T/C (dose: 60.0 mg/kg/injection, schedule: Q01DX005 (ip), vehicle: Klucel (hydroxypropylcellulose) (HPC)): 96 % of control
T/C (dose: 120.0 mg/kg/injection, schedule: Q01DX005 (ip), vehicle: Klucel (hydroxypropylcellulose) (HPC)): 97 % of control
T/C (dose: 240.0 mg/kg/injection, schedule: Q01DX005 (ip), vehicle: Klucel (hydroxypropylcellulose) (HPC)): 95 % of control

Cc1c2ccncc2c(CN2C(=O)c3ccccc3C2=O)c2c3ccccc3n(C)c12
T/C (dose: 12.5 mg/kg/injection, schedule: Q04DX002 (ip), vehicle: saline with Tween-80): 102 % of control
T/C (dose: 25.0 mg/kg/injection, schedule: Q04DX002 (ip), vehicle: saline with Tween-80): 100 % of control
T/C (dose: 50.0 mg/kg/injection, schedule: Q04DX002 (ip), vehicle: saline with Tween-80): 98 % of control
T/C [6]: 95 % of control

O=C(Nc1ccc([N+](=O)[O-])cc1)Nc1ccc([N+](=O)[O-])cc1 (tested in a mixture with another compound)
T/C [13]: 103 % of control
T/C [4]: 100 % of control
T/C [14]: 117 % of control
T/C (dose: 200.0 mg/kg/injection, schedule: Q01DX009 (ip), vehicle: saline with Tween-80): 100 % of control
T/C (dose: 400.0 mg/kg/injection, schedule: Q01DX009 (ip), vehicle: Klucel (hydroxypropylcellulose) (HPC)): 117 % of control
T/C (dose: 400.0 mg/kg/injection, schedule: Q01DX009 (ip), vehicle: saline with Tween-80): 104 % of control

Oc1ccc(Nc2ccc3[nH]c4ccccc4c3c2)cc1
T/C [15]: 101 % of control
T/C [7]: 106 % of control
T/C [8]: 104 % of control

O=C(O)C[P+](Cc1ccccc1)(c1ccccc1)c1ccccc1
T/C (dose: 25.0 mg/kg/injection, schedule: Q01DX009 (ip), vehicle: Klucel (hydroxypropylcellulose) (HPC)): 97 % of control
T/C [16]: 102 % of control and 113 % of control
T/C [13]: 101 % of control and 103 % of control
T/C [14]: 95 % of control

[N-]=[N+]=[N-]
T/C (dose: 3.0 mg/kg/injection, schedule: Q01DX009 (ip), vehicle: saline with Tween-80): 100 % of control
T/C (dose: 6.0 mg/kg/injection, schedule: Q01DX009 (ip), vehicle: saline with Tween-80): 105 % of control

O=C(Cl)c1ccccc1Sc1ccccc1
T/C [12]: 95 % of control
T/C [1]: 100 % of control
T/C [2]: 90 % of control
T/C [3]: 100 % of control
T/C [4]: 100 % of control
T/C [5]: 100 % of control

CC(=O)CCCCCCCCCCCCCCC1=C(C)C(=O)OC1=O
T/C [15]: 103 % of control
T/C [7]: 99 % of control
T/C [8]: 89 % of control
T/C (dose: 400.0 mg/kg/injection, schedule: Q01DX005 (ip), vehicle: Klucel (hydroxypropylcellulose) (HPC)): 96 % of control

CSc1nc(=O)[nH]nc1SCc1ccccc1
T/C [16]: 114 % of control and 120 % of control
T/C [13]: 101 % of control and 111 % of control
T/C [14]: 108 % of control and 120 % of control
